Reference: ChEMBL document CHEMBL5120923, “Tamarixetin Attenuated the Virulence of Staphylococcus aureus by Directly Targeting Caseinolytic Protease P” (J Nat Prod, 2022)
In brackets after ≈: the same amount, converted by molar mass. Activity calls are given as the source filed them. The calls are words filed in the database; no cut-off is given here.

Assays:
[1] = tested on: Staphylococcus aureus; test: Inhibition of methicillin-resistant Staphylococcus aureus USA300 ClpP using Suc-LY-AMC as fluorescent substrate at 64 ug/ml preincubated for 1 hr followed by substrate addition and measured after 1 hr by FRET assay relative to control; conditions: dose 64.0 µg/ml, time 2.0 hrs
[2] = Inhibition of methicillin-resistant Staphylococcus aureus USA300 ClpP using Suc-LY-AMC as fluorescent substrate preincubated for 1 hr followed by substrate addition and measured after 1 hr by FRET assay
[3] = tested on: Staphylococcus aureus; test: Antibacterial activity against methicillin-resistant Staphylococcus aureus USA300 incubated for 24 hrs by microdilution broth assay; format: functional
[4] = tested on: A549; test: Cytotoxicity against human A549 cells at 64 ug/ml by MTT assay; format: toxicity, cell-based; conditions: dose 64 µg/ml
[5] = tested on: HepG2; test: Cytotoxicity against human HepG2 cells at 64 ug/ml by MTT assay; format: toxicity, cell-based; conditions: dose 64 µg/ml
[6] = tested on: HEK-293T; test: Cytotoxicity against human HEK-293T cells at 64 ug/ml by MTT assay; format: toxicity, cell-based; conditions: dose 64 µg/ml
[7] = tested on: Staphylococcus aureus; test: Inhibition of hla gene transcription level in methicillin-resistant Staphylococcus aureus USA300 at 64 ug/ml by qPCR analysis; format: functional; conditions: dose 64.0 µg/ml
[8] = tested on: Staphylococcus aureus; test: Inhibition of agr gene transcription level in methicillin-resistant Staphylococcus aureus USA300 at 64 ug/ml by qPCR analysis; format: functional; conditions: dose 64.0 µg/ml
[9] = tested on: Staphylococcus aureus; test: Inhibition of RNAIII gene transcription level in methicillin-resistant Staphylococcus aureus USA300 at 64 ug/ml by qPCR analysis; format: functional; conditions: dose 64.0 µg/ml
[10] = tested on: Staphylococcus aureus; test: Inhibition of pvl gene transcription level in methicillin-resistant Staphylococcus aureus USA300 at 64 ug/ml by qPCR analysis; format: functional; conditions: dose 64.0 µg/ml
[11] = tested on: Staphylococcus aureus; test: Inhibition of PSM-alpha gene transcription level in methicillin-resistant Staphylococcus aureus USA300 at 64 ug/ml by qPCR analysis; format: functional; conditions: dose 64.0 µg/ml
[12] = tested on: Staphylococcus aureus; test: Inhibition of spa gene transcription level in methicillin-resistant Staphylococcus aureus USA300 at 64 ug/ml by qPCR analysis; format: functional; conditions: dose 64.0 µg/ml
[13] = Inhibition of agrA gene transcription level in methicillin-resistant Staphylococcus aureus USA300 at 64 ug/ml by qPCR analysis; format: functional
[14] = tested on: Staphylococcus aureus; test: Antibacterial activity against methicillin-resistant Staphylococcus aureus USA300 assessed as inhibition of bacteria-mediated hemolytic activity on rabbit erythrocytes at 128 ug/ml incubated for 30 mins by hemolysis assay; format: functional; conditions: USA300, 0.5 h
[15] = tested on: Staphylococcus aureus; test: Antibacterial activity against methicillin-resistant Staphylococcus aureus USA300 harboring ClpP delta mutant assessed as inhibition of bacteria-mediated hemolytic activity on rabbit erythrocytes at 128 ug/ml incubated for 30 mins by hemolysis assay; format: functional; conditions: USA300, 0.5 h
[16] = tested on: Staphylococcus aureus; test: Inhibition of PVL protein expression in methicillin-resistant Staphylococcus aureus USA300 incubated for overnight by western blot analysis; format: functional; conditions: DDE = dose-dependent effect
[17] = tested on: Staphylococcus aureus; test: Inhibition of PVL protein expression in methicillin-resistant Staphylococcus aureus Newman incubated for overnight by western blot analysis; format: functional; conditions: DDE = dose-dependent effect
[18] = tested on: Staphylococcus aureus; test: Binding affinity to methicillin-resistant Staphylococcus aureus USA300 ClpP assessed as decrease in thermal stability of the protein at 16 to 64 ug/ml by SYPRO orange thermal shift assay; conditions: dose 16-64 µg/ml
[19] = tested on: Staphylococcus aureus; test: Binding affinity to methicillin-resistant Staphylococcus aureus USA300 ClpP assessed as change in thermal stability by measuring protein deposition at 64 ug/ml by measured after 1 hr by cellular thermal shift assay (reference value: 65 degC); conditions: dose 64.0 µg/ml
[20] = tested on: Staphylococcus aureus; test: Binding affinity to methicillin-resistant Staphylococcus aureus USA300 ClpP assessed as association rate constant by surface plasmon resonance assay
[21] = tested on: Staphylococcus aureus; test: Binding affinity to methicillin-resistant Staphylococcus aureus USA300 ClpP assessed as dissociation rate constant by surface plasmon resonance assay
[22] = Binding affinity to methicillin-resistant Staphylococcus aureus USA300 ClpP assessed as dissociation constant by surface plasmon resonance assay
[23] = tested on: Staphylococcus aureus; test: Antibacterial activity against methicillin-resistant Staphylococcus aureus USA300 harboring delta ClpP mutant infected in C57BL/6J mouse pneumonia model assessed as reduction in mortality rate at 50 mg/Kg, sc administered every 12 hrs measured after 72 hrs (Rvb =80%); format: functional; parameters: scale not given: the % may be the effect or the level left
[24] = tested on: Staphylococcus aureus; test: Antibacterial activity against methicillin-resistant Staphylococcus aureus USA300 infected in C57BL/6J mouse pneumonia model assessed as reduction in bacterial load in lung at 100 mg/Kg, sc administered every 12 hrs measured after 48 hrs in presence of cefotaxime (reference value: 10.04+/- 0.56 log10CFU/g); format: functional
[25] = tested on: Staphylococcus aureus; test: Antibacterial activity against methicillin-resistant Staphylococcus aureus USA300 infected in C57BL/6J mouse pneumonia model assessed as reduction in infiltration of inflammatory cells in alveoli at 100 mg/Kg, sc administered every 12 hrs measured after 48 hrs by hematoxylin and eosin staining based histopathological analysis; format: functional, organism-based
[26] = tested on: Staphylococcus aureus; test: Antibacterial activity against methicillin-resistant Staphylococcus aureus USA300 harboring delta ClpP mutant infected in C57BL/6J mouse pneumonia model assessed as reduction in infiltration of inflammatory cells in alveoli at 100 mg/Kg, sc administered every 12 hrs measured after 48 hrs by hematoxylin and eosin staining based histopathological analysis; format: functional, organism-based
[27] = tested on: Staphylococcus aureus; test: Antibacterial activity against methicillin-resistant Staphylococcus aureus USA300 infected in C57BL/6J mouse pneumonia model assessed as reduction in IFN-gamma level in lung at 100 mg/Kg, sc administered every 12 hrs measured after 48 hrs by ELISA; format: functional, organism-based
[28] = tested on: Staphylococcus aureus; test: Antibacterial activity against methicillin-resistant Staphylococcus aureus USA300 infected in C57BL/6J mouse pneumonia model assessed as reduction in IL-6 level in lung at 100 mg/Kg, sc administered every 12 hrs measured after 48 hrs by ELISA; format: functional, organism-based
[29] = tested on: Staphylococcus aureus; test: Antibacterial activity against methicillin-resistant Staphylococcus aureus USA300 infected in C57BL/6J mouse pneumonia model assessed as reduction in TNF-alpha level in lung at 100 mg/Kg, sc administered every 12 hrs measured after 48 hrs by ELISA; format: functional, organism-based
[30] = tested on: Staphylococcus aureus; test: Synergistic antibacterial activity against methicillin-resistant Staphylococcus aureus USA300 infected in C57BL/6J mouse pneumonia model assessed as lethality at 50 mg/Kg, sc administered every 12 hrs measured after 72 hrs in presence of cefotaxime (Rvb =40%); format: functional
[31] = tested on: Staphylococcus aureus; test: Synergistic antibacterial activity against methicillin-resistant Staphylococcus aureus USA300 infected in C57BL/6J mouse pneumonia model assessed as reduction in bacterial load in lung at 100 mg/Kg, sc administered every 12 hrs measured after 48 hrs in presence of cefotaxime (reference value: 7.72 +/- 0.50 log10CFU/g); format: functional
[32] = tested on: Staphylococcus aureus; test: Synergistic antibacterial activity against methicillin-resistant Staphylococcus aureus USA300 infected in C57BL/6J mouse pneumonia model assessed as reduction in infiltration of inflammatory cells in alveoli at 100 mg/Kg, sc administered every 12 hrs measured after 48 hrs in presence of cefotaxime by hematoxylin and eosin staining based histopathological analysis; format: functional, organism-based
[33] = tested on: Staphylococcus aureus; test: Synergistic antibacterial activity against methicillin-resistant Staphylococcus aureus USA300 assessed as cefotaxime MIC by checker board method; format: functional
[34] = tested on: Staphylococcus aureus; test: Synergistic […] activity against Cmethicillin-resistant Staphylococcus aureus USA300 assessed as fractional inhibitory concentration index at 64 ug/ml in presence of cefotaxime by checker board method; format: functional; conditions: dose 64 µg/ml
[35] = tested on: Staphylococcus aureus; test: Inhibition of methicillin-resistant Staphylococcus aureus USA300 ClpP assessed as upregulation of urease production at 64 ug/ml incubated for 4 hr by spectrophotometry; conditions: dose 64.0 µg/ml

`COc1ccc(-c2oc3cc(O)cc(O)c3c(=O)c2O)cc1O` [TAMARIXETIN] gave an inhibition [1] of 2.5%, an IC50 [2] of 49.7 µM and an MIC [3] of 512 µg/mL (≈ 1620 µM). The Activity [4] was “Non-Toxic”, the Activity [5] was “Non-Toxic” and the Activity [6] was “Non-Toxic”. The inhibition [7] was “Active”, the inhibition [8] was “Active” and the inhibition [9] was “Active”. The inhibition [10] was “Active”, the inhibition [11] was “Active” and the inhibition [12] was “Active”. For the same molecule, the inhibition at 64 µg/mL [13] was 83.9%, the inhibition at 128 µg/mL [14] was > 55% and the inhibition at 128 µg/mL [15] was 85.8%. For the same molecule, the inhibition [16] was “Dde”, the inhibition [17] was “Dde” and the ΔTm [18] was > 2 °C. For the same molecule, the Activity [19] was “Active”, the Ka [20] was 1.69 10^3/M/s and the Kdiss [21] was 4.26 10^-3/s. It also gave a Kd [22] of 2.52 µM, an Activity [23] of 70% and an Activity [24] of 7.03 log10CFU/g. For the same molecule, the Activity [25] was “Active”, the Activity [26] was “Active” and the Activity [27] was “Active”. The Activity [28] was “Active”, the Activity [29] was “Active” and the Activity [30] was 20%. For the same molecule, the Activity [31] was 7.03 log10CFU/g, the Activity [32] was “Active” and the MIC [33] was 16 µg/mL. For the same molecule, the “fractional inhibitory concentration index (FICI)” value [34] was 0.375 and the inhibition [35] was “Active”.
